In article PMC2009665, “The bacterial mutation test. Six tests for carcinogenicity” (British Journal of Cancer, 1978):
Read-outs that look alike come from different tables or passages of the source.

Tests used:
[1] = tested on: Salmonella typhimurium TA 1538; settings: cited from earlier work
[2] = tested on: Salmonella typhimurium TA 100
[3] = tested on: Salmonella typhimurium TA 100; settings: cited from earlier work
[4] = tested on: Salmonella typhimurium TA 1538
[5] = tested on: Salmonella typhimurium TA 1535
[6] = tested on: Salmonella typhimurium TA 1535; settings: cited from earlier work
[7] = tested on: Salmonella typhimurium TA 98
TA 1537 = settings: cited from earlier work
[8] = tested on: Salmonella typhimurium (TA 1535, TA 1538, TA 98 and TA 100)
S. typhimurium = settings: cited from earlier work
Strain G46 = settings: cited from earlier work
Strain C 3076 = settings: cited from earlier work
Strain TA 1530 = settings: cited from earlier work
[9] = tested on: Salmonella typhimurium TA 98; settings: cited from earlier work
strain TA 1950 = settings: after induction of enzymes with BHT; ref Green, 1974; cited from earlier work
strain TA 1952 = settings: after induction of enzymes with BHT; ref Green, 1974; cited from earlier work
Strain TA 1532 = settings: Lab 8; H induction method unknown; ref Green (1974); cited from earlier work

| SMILES | Result on TA 100 [2] | Result on TA 1538 [4] | Result on TA 1535 [5] | Result on TA 98 [7] | Result on TA 1537 (TA 1537) | Result in the present study [8] | further results |
| --- | --- | --- | --- | --- | --- | --- | --- |
| Nc1ccc2cc3ccccc3cc2c1 [2-Aminoanthracene] | + | + |  |  |  |  | Result on TA 1538 [1]: +; Result on TA 100 [3]: + |
| Nc1ccc2ccccc2c1 [2-Naphthylamine] |  |  | + | - |  |  | Result on TA 1535 [6]: + |
| Nc1ccc(-c2ccccc2)cc1 [4-Aminobiphenyl] |  | + | - | + | + |  |  |
| CN(C)c1ccc(N=Nc2ccccc2)cc1 [4-Dimethylaminoazobenzene] | + | + | + | + |  | positive | Result on TA 1538 [1]: +; Response in the plate incorporation assay (S. typhimurium; plate incorporation assay, ref Commoner et al. (1974)): unable to obtain a positive response |
| Nc1cc2c3ccccc3ccc2c2ccccc12 [6-Aminochrysene] |  |  | - | + | + |  |  |
| Cc1c2ccccc2c(C)c2c1ccc1ccccc12 [9,10-Dimethyl-1,2-benzanthracene] |  |  |  |  |  |  | Maximum fold increase in Salmonella revertants above the concurrent negative-control values, TA 1535 [5]: -; Test result (prediction of carcinogenicity from the test) [8]: +; Concentration of the compound at which the maximum effect occurred, TA 100 [2]: 2500; Maximum fold increase in Salmonella revertants above the concurrent negative-control values, TA 100 [2]: 5 fold; Concentration of the compound at which the maximum effect occurred, TA 1538 [4]: 2500; Maximum fold increase in Salmonella revertants above the concurrent negative-control values, TA 1538 [4]: 4 fold; Maximum fold increase in Salmonella revertants above the concurrent negative-control values, TA 98 [7]: - |
| O=C1CCO1 [/3-Propiolactone] | + | + |  | - |  |  | Result on other strains: G46 (Strain G46): 46+; Result on other strains: C 3076 (Strain C 3076): 76+; Result on TA 100 [3]: + |
| CCN(CC)N=O [Diethylnitrosamine] |  |  |  |  |  | positive | Result on subsequent testing [8]: negative |
| CN(C)N=O [Dimethylnitrosamine] |  | - | - | - |  | negative | Result on subsequent testing [8]: positive results have, on occasions; Result on other strains: TA 1530 (Strain TA 1530; Lab 4, P Phenobarbital induction and S9 mix added, L tested in liquid culture, ref Bartsch et al. (1976)): 3+ |
| CCOS(C)(=O)=O [Ethyl methanesulphonate] | + | + | + | + |  | detected in all 4 strains | Result on other strains: G46 (Strain G46): 46+; Result on other strains: C 3076 (Strain C 3076): 76+; Result on TA 1535 [6]: +; Result on TA 100 [3]: + |
| CN(C)P(=O)(N(C)C)N(C)C [Hexamethylphosphoramide] |  | - |  | - |  |  | Result on TA 1538 [1]: -; Result on TA 98 [9]: - |
| NN [Hydrazine] | + | - | + | + | - |  | Result on other strains: G46 (Strain G46): 46+; Result on TA 1538 [1]: -; Result on other strains: TA 1530 (Strain TA 1530; Lab 2, W no S9 mix, ref McCann et al. (1975) and references quoted therein): 3+; Result on TA 1535 [6]: + |
| C=CCc1ccc2c(c1)OCO2 [Safrole] |  | - |  |  | - | positive | Result in host-mediated assay, strain TA 1950 (strain TA 1950): positive; Result on other strains: TA 1530 (Strain TA 1530; Lab 8, H induction method unknown, ref Green (1974)): 3+; Result in host-mediated assay, strain TA 1952 (strain TA 1952): positive; Result on other strains: TA 1532 (Strain TA 1532): 2+ |
| CCOC(N)=O [Urethane] |  | - | - | - | - |  | Result on TA 98 [9]: -; Result on TA 1535 [6]: - |
| C=CCl [Vinyl chloride] |  |  |  |  |  |  | Result dissolved in DMSO (S. typhimurium): negative; Result when tested as a gas (S. typhimurium): positive |
